Results as given in patent US9820486B2, “Compositions and methods for controlling nematodes” (Monsanto Technology LLC, priority 2009, dated 2017).
Values joined by “and” are separate entries in the source; they are usually repeats but may differ in a detail not shown here. Identical values can stand only once. Marks after values point to notes of the source that are not given here.

Tests used:
Meloidogyne incognita = experiment: M. incognita miniaturized greenhouse assay on cucumber seedlings (root galling); assay type: in vivo; conditions: cucumber roots, average of triplicate gall rating; for 8 ppm gall ratings: scale 0=0-5%, 1=6-20%, 2=21-50%, 3=51-100% root mass galled; for 1 ppm gall ratings: scale 0-3
Method: The test compound is dissolved in an acetone solution and added to water. A sprouted cucumber seedling is placed into a vial with dry sand and the water-chemical solution is added immediately. Twenty four hours later Meloidogyne incognita eggs are added to the vials and 10 to 12 days later the roots are evaluated for nematode galling.
Cucumber seeds are sprouted for 3 days in moist paper towels. Acceptable sprouts should be 3 to 4 cm long with several lateral roots just emerging. Stock solutions of chemistry are prepared in a mixture of acetone and Triton X100 (412 mg in 500 mL) to a final concentration of 5 mg/mL. The chemical stock solution is then added to 10 mL deionized water plus 0.015% Triton X100 and mixed thoroughly. This is enough to test each condition in triplicate. Ten mL dry sand is added to each vial. At this time the solubility of the chemistry is visually determined and recorded as either ppt (large precipitates) or cloudy (fine precipitates). Seedlings are planted by tilting the vial and laying the seedling in the correct orientation so that the cotyledons are just above the sand and then tilting back to cover the radicles with sand. 3.3 ml water/chemical mix is added to each vial and the vials placed in racks under fluorescent light banks. The vials are inoculated two days after planting by adding 500 vermiform M. incognita eggs to each vial in 50 uL of deionized or spring water. The vials are then kept under the fluorescent lamps at ambient room temperature and watered as needed with 1 mL deionized water, usually twice during duration of test. Harvest of the cucumber plants is done 10 to 12 days after inoculation by washing sand off the roots. A root gall rating and visual phytotoxicity rating is assigned using the following scales: Gall rating scale (Gall: % root mass galled): 0=0-5%; 1=6-20%; 2=21-50%; and 3=51-100%. The average of the triplicate gall rating is then calculated: green=0.00-0.33 (no galls); yellow=0.67-1.33 (mild galling); orange=1.67-2.33 (moderate galling); red=2.67-3.00 (severe galling). Visual phytotoxicity scale is also assigned (Vis. tox; visual reduction in root mass compared to the control): rs1=mild stunting; rs2=moderate stunting; rs3=severe stunting.

root knot nematode (RKN) = experiment: RKN greenhouse soil assay on cucumber plants; assay type: in vivo, Meloidogyne incognita; conditions: 0 day treatment, rated 14 days after egg inoculation
From the text: Cucumber seeds are planted in a sandy soil mixture in two inch square plastic pots. When the cotyledons are fully opened and just as the first leaf begins to emerge, usually 7 days after planting, chemistry for the 7-day treatment is applied. One week later the chemistry for the 0 day treatment is applied. Separate plants are used for each application. The plants are generally in the 1-2 leaf stage now. At least four hours after the chemistry application the pots are inoculated with root knot nematode (RKN) eggs. Plants are rated for galling 14 days after the egg inoculation.
(§1) One milligram of chemistry per four pots is equal to one kilogram per hectare of chemical. A standard test uses four replications. For rates above 2 kg/ha, the desired amount of chemical is weighed into a 30 ml vial (example: 8 kg/ha rate=8 mg chemical in 30 ml vial). The chemical is dissolved in 2 ml of appropriate solvent, generally acetone. For rates below 2 kg/ha, 2 milligrams of chemistry is weighed into the vial and dissolved in 2 ml of the solvent. The appropriate amount of chemical concentrate is then pipetted into a separate 30 ml vial and solvent is added to bring the volume to 2 ml (example 0.5 kg/ha=0.5 ml of concentrate+1.5 ml solvent). Each dissolved concentrate is then brought to a total of 20 milliliters using 0.05% Triton X 100 surfactant solution.
(§2) Pots to be treated are moist but not saturated. To each of four pots, five milliliters of the appropriate chemical solution is pipetted to the media surface making sure to avoid contact with the base of the plant. Immediately following chemical application, using a mist nozzle, the pot surface is wetted sufficiently to saturate the pot watering in the chemistry. The chemical application is done in the morning.
(§3) Nematode eggs, either SCN or RKN, are added to distilled water to create a concentration of 1000 vermiform eggs […]. At least four hours after chemical treatment the eggs are applied to the treated pots plus non-treated check plants. A small hole about 1 cm deep is punched into the pot surface. […]

[1] = system: soybean cyst nematode (SCN); experiment: SCN greenhouse soil assay on soybean plants; assay type: in vivo, Heterodera glycines; conditions: 0 day treatment, harvested 28 days after egg inoculation, tests a and b
From the text: Soybeans seeds are planted in 100% sand in two inch square plastic pots. Chemical treatment is done when the soybeans show the first trifoliate beginning to emerge about 10 to 12 days after planting. At least four hours after chemical application the nematode soybean cyst nematode (SCN) eggs are applied and 28 days after the egg inoculation the test is harvested.
as §1, §2
as §3, with “surface. One milliliter of the nematode egg slurry is pipetted into the hole. Immediately afterwards the hole is gently covered. Watering of the test plants is then restricted to only water as needed to prevent wilt for a period of 24 hours.” for “surface.”

Row | Structure (SMILES) | 8 ppm gall ratings (Meloidogyne incognita) | percent control (galling reduction) relative to the control blank treatment, 0 day 1 kg/ha rate (root knot nematode (RKN)) [%] | percent control (cyst reduction) relative to the control blank treatment, 0 day 0.25 kg/ha rate [1] | 1 ppm gall ratings (Meloidogyne incognita)
1 | Clc1ccc(-c2noc(Cc3ccco3)n2)cc1 [Name 1, 3-(4-chlorophenyl)-5-(furan-2-ylmethyl)-1,2,4-oxadiazole] | 1.3^a | – | – | –
2 | Clc1cccc(-c2noc(Cc3ccco3)n2)c1 [Name 2, 3-(3-chlorophenyl)-5-(furan-2-ylmethyl)-1,2,4-oxadiazole] | 1.3^a | – | – | –
3 | Clc1ccc(Oc2noc(-c3ccco3)n2)cc1 [Name 3, 3-(4-chlorophenoxy)-5-(furan-2-yl)-1,2,4-oxadiazole] | 0^b | 89 | 79%^a, 79%^b | –
4 | Clc1cccc(Oc2noc(-c3ccco3)n2)c1 [Name 4, 3-(3-chlorophenoxy)-5-(furan-2-yl)-1,2,4-oxadiazole] | 0^b | 83 | 67% and 78% | –
5 | Clc1ccc(Cc2nsc(-c3ccco3)n2)cc1 [Name 5, 3-(4-chlorobenzyl)-5-(furan-2-yl)-1,2,4-thiadiazole] | 0.67^b | – | – | –
6 | Clc1ccc(-c2coc(-c3ccco3)n2)c(Cl)c1 [Name 6, 4-(2,4-dichlorophenyl)-2-(furan-2-yl)oxazole] | 0.33^c | – | – | –
7 | Cc1ccc(-c2coc(-c3ccco3)n2)c(C)c1 [Name 7, 4-(2,4-dimethylphenyl)-2-(furan-2-yl)oxazole] | 1.33^c | – | – | –
8 | Clc1ccc(-c2coc(-c3ccco3)n2)cc1 [Name 8, 4-(4-chlorophenyl)-2-(furan-2-yl)oxazole] | 0.67^d | – | – | –
9 | Clc1ccc(-c2cnc(Sc3cccs3)o2)cc1 [Name 9, 5-(4-chlorophenyl)-2-(thiophen-2-ylthio)oxazole] | 1.33^d | – | – | –
10 | Clc1ccc(-c2cnc(-n3cccc3)o2)cc1 [Name 10, 5-(4-chlorophenyl)-2-(1H-pyrrol-1-yl)oxazole] | – | 100 | – | 1.33
11 | CNC(=O)O/N=C(\SC)C(=O)N(C)C [Oxamyl, reference compound] | – | – | 67%^b | 1.33^e
